Assay results: patent US20100197584A1, “USE OF CURCUMIN TO BLOCK BRAIN TUMOR FORMATION IN MICE” (Research Foundations of the City University of- New York, priority 2007, published 2010)

Tests used:
[1] = system: HOG (human oligodendroglioma) cells; test: Cell viability assay using MTT, HOG; type: cell-based; conditions: 25 μM and 50 μM, 48 h or 96 h, versus control cells (FIG. 6e)
Method: Cells. B16F10 (mouse melanoma), GL261 (mouse glioma), HOG (human oligodendroglioma), A549 (human lung cancer), and N18 (mouse neuroblastoma) cells were cultured separately in DMEM containing 10% (v/v) fetal bovine serum and 1% (v/v) penicillin-streptomycin (PS) and allowed to grow to 40% confluence in a 96-well plate.
Curcumin Treatment. Two hours before drug treatment, the medium in each well was replaced with 200 μl Neurobasal medium supplemented with 2% (v/v) B27 and 1% (v/v) PS (Drug-treatment Medium). A stock solution (40 mM) of curcumin was prepared in sterile dimethyl sulfoxide (DMSO) (Example 1). Through serial dilution of each stock solution in Drug-treatment Medium, the following concentrations were obtained: 20 μM and 50 μM (for caspase 3/7 assays) or 25 μM and 50 μM (for MTT assays). […] Additionally, the background absorbance was determined from parallel wells containing only the Drug-treatment Medium plus a particular concentration of the drug (no cells).
Cell Viability Assay Using MTT (3-(4,5-Dimethylthiazolyl-2)-2,5-Diphenyltetrazolium Bromide). […] Absorbance was measured at 570 nm using a 96-well multi scanner auto-reader with the extraction buffer used as blank. For curcumin samples, the absorbance obtained from the corresponding curcumin plus medium samples was subtracted.

[2] = system: B16F10 mouse melanoma cells; test: Brain tumor formation (B16F10 cells injected into right front brain), tail vein curcumin; type: in vivo, C57BL mouse
Method: Generation of Tumors. The mice were given food and water ad libitum and subjected to 12 hour dark/12 hour light cycles. To generate brain tumors in mice, B16F10 mouse melanoma cells or GL261 mouse glioma cells (1000 cells in 5 μl PBS per C57BL mouse) were injected into the right front brain [coordinates: with respect to the Bregma (in mm) AP=2.5; L=−1.1; D=1.5] at the rate of 1 μl per minute using a stereotaxic set-up (KDS Model 310plus infusion-withdrawal syringe pump) (Paxinos, G., and Franklin, K. B. J., The mouse brain in stereotaxic coordinates. 2nd ed. 2001, New York: Academic Press). Before the cell injection, the mouse was anesthetized by injecting (sc) xylazine (10 mg/Kg) and ketamine (100 mg/Kg), the head was shaved, and then the head was immobilized on a Stoelting sterotaxic frame. The mouse was determined to be in deep anesthesia by checking for regular, relaxed respiration and the lack of response to tail/toe pinch before its head was immobilized. The head was cleaned with 70% ethanol and then, using a sterile scalpel, a midline incision was made and subcutaneous muscle and fascia retracted to expose the skull. A hole was made in the skull with a dental drill and the cells injected as described above using a Hamilton syringe fitted to the syringe pump. Under the described condition of anesthesia, the mouse remains unconscious for about 90 min. The total time taken for immobilization of the mouse, exposure of the skull, and injection was about 30 min. Thus, the total time required from the injection of anesthetics to the completion of surgery was less than one hour. After the injection, the hole in the skull was sealed with sterile bone wax and the skin and muscle placed back in place with appropriate 7-mm stainless steel clips (Reflex Skin closure system; Cellpoint Scientific). For wound healing, a topical antibiotic (Triple Antibiotic, containing Polymyxin B, Bacitracin, and Neomycin) was applied and for post-operative care the animal was kept in a warm blanket at 35-37° C. taking precautions to avoid thermal injury. On the first day after surgery (day 2), a sterile, 37° C. solution of physiologic saline was administered (IP) at the dose of 1 ml/100 g body weight. The animals were then caged individually with access to food and water and kept under close monitoring. The mice also received acetaminophen (Tylenol syrup) 1 mg/ml in drinking water daily until they returned to complete normalcy in terms of both behavior and appearance (body weight; reduced locomotion, vocalization, lack of grooming, wound scratching; and signs inflammation at the surgical site).
Curcumin Treatment. The control mice received, aseptically, the carrier (3% DMSO in 200 μl PBS) daily from the next day (day 2), through the tail vein after placing the mouse in a restraining cage without anesthetics. Other mice similarly received 667 μM curcumin in 200 μl of PBS containing 3% DMSO daily from the next day (day 2) for 18 days (through day 19) through the tail vein. Other mice received the same curcumin solution daily from day 4, day 6, day 8 or day 10. One mouse (designated Mouse 2) received a single dose of curcumin (5 μl of 667 μM solution) five minutes after injection of B16F10 cells into the brain, using the same stereotaxic set-up.
Monitoring and Sample Preparation. The effects of brain tumor on movement generally appeared in about two to three weeks. The mice were monitored for disorders in movement using an open field VIDEO monitoring set up (10 min per mouse). Blood was collected from the saphenous vein to test for markers for cancer and cell and organ damage. Additionally, MRI was performed on the mice to monitor the growth and progression of brain tumors. […]

[3] = system: Erk; test: Western blot of B16F10 cells, Erk; type: cell-based, mouse; conditions: 50 μM (FIG. 9)
Method: (§1) B16F10 cells were cultured in 10-cm plates and then treated in duplicate with carrier or curcumin (50 μM). Following treatment for appropriate time periods, the cells were washed with PBS, lysed in RIPA buffer (PBS containing 1% Nonidet P40, 0.5% sodium deoxycholate, 0.1% SDS, 0.5 mM Na3VO4 plus freshly added PMSF and protease inhibitor cocktail; Boeringer-Roche), and then 20 μg of lysate protein (per lane) were analyzed by SDS-10% PAGE and Western blot analysis. Antibody concentrations used were: anti-phospho-NF-κB (1:1000) (Santa Cruz Biotechnology, Santa Cruz, Calif.), anti-phospho-Akt (1:5000) (Cell Signaling, CA), anti-cyclin D1 (1:1000) (Cell Signaling, CA), anti-BclXL (1:500) (Santa Cruz Biotechnology), anti-VEGF (1:500) (Santa Cruz Biotechnology), and anti-β-actin (1:1000) (Sigma, St. Louis, Mo.).

[4] = system: BclXL; test: Western blot of B16F10 cells, BclXL; type: cell-based, mouse; conditions: 50 μM (FIG. 9)
Method: as §1

## COc1cc(/C=C/C(=O)CC(=O)/C=C/c2ccc(O)c(OC)c2)ccc1O [curcumin]
[1]
  cell viability (MTT): dramatic decrease
[2]; B16F10 cells in right frontal lobe, 200 μl of 667 μM curcumin daily, tail vein, day 2 to day 19
  brain tumor formation and morbidity: blocked
[2]; curcumin-injected mice (FIG. 8B)
  tissue disintegration (hematoxylin and eosin staining of brain tissue): completely blocked
[2]; daily curcumin injections, day 20
  movement: normal movement
[2]; daily curcumin injections, days 21, 28, and 39
  movement and behavior: normal movement and behavior
[2]; single dose (5 μl of 667 μM, into brain five minutes after B16F10 cells; Mouse 2)
  tumors in the right frontal lobe: Large tumors were observed
[2]; single dose (5 μl of 667 μM, into brain five minutes after B16F10 cells; Mouse 2), day 21
  condition of mouse: hunched up and morbid
[3]
  Erk (Western blot): suppression
[4]
  BclXL (Western blot): suppression
